Earlier results as cited in patent US20070190090A1, “SIALAGOGUE BASED ORAL CARE PRODUCTS” (WhiteHill Oral Technologies, Inc., priority 2006, published 2007).

What was measured:
[1] = mice, orally
[2] = tested on: certain microorganisms (Gram positive and Gram negative bacteria); details: toxicity varying for Gram positive and Gram negative bacteria

**Q.** With `C/C=C/C=C\CC/C=C/C(=O)NCC(C)C` [affinin, N-isobutyl-2E,6Z,8E-decatrienamide] as the molecule, how does the analgesic effect ([1]; doses from 2.5 to 10.0 mg/kg) read?
**A.** The analgesic effect was “analgesic effect”.

**Q.** What about the deaths ([1]; highest dose (10.0 mg/kg)) of the same molecule?
**A.** The deaths was “two out of five”.

**Q.** What about the “effect on normal motor activity” value ([1]; highest dose (10.0 mg/kg)) of the same molecule?
**A.** Its value is “severe depression of normal motor activity”.

**Q.** What about the “toxicity to certain microorganisms” value [2] of the same molecule?
**A.** Its value is “toxic”.
